Drawing on PubChem BioAssay (NCI), this text covers TGI for 14 compounds.

Structures are written as SMILES.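 All cell lines were grown in 96-well plates and treated with compound for 48 hours. At the TGI there is no net growth.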

Among the test systems are SK-OV-3 ovarian; UO-31 renal; SF-268 CNS; HCT-15 colon; MDA-MB-231 breast; U251 CNS; OVCAR-5 ovarian; M14 melanoma; RXF 393 renal; KM12 colon.
Common to all, as to assay: NCI tumour cell line growth inhibition, 48 h

`Cc1cnc2[nH]c(-c3sccc3C)cc(=O)c2c1`: the TGI with SK-OV-3 ovarian, with UO-31 renal, in the assay on SF-268 CNS, in the assay on HCT-15 colon, in the assay on MDA-MB-231 breast and in the assay with U251 CNS was > 100 µM throughout. For the same compound, the TGI is > 100 µM in the assay with OVCAR-5 ovarian, > 33.4 µM in the assay on M14 melanoma, > 28.4 µM with RXF 393 renal and > 51.3 µM in the assay on KM12 colon.

On to `COc1ccc(C(OCC2OC(n3ccc(Oc4c(F)c(F)c(F)c(F)c4F)nc3=O)CC2OP(OCCC#N)N(C(C)C)C(C)C)(c2ccccc2)c2ccc(OC)cc2)cc1` (stereo not given), for which the TGI in the assay on SK-OV-3 ovarian, in the assay on UO-31 renal, in the assay with SF-268 CNS, in the assay with HCT-15 colon, in the assay on MDA-MB-231 breast and in the assay on U251 CNS was > 100 µM in each case. For the same compound, the TGI with OVCAR-5 ovarian, in the assay on M14 melanoma, in the assay with RXF 393 renal and in the assay with KM12 colon was > 100 µM throughout.

`O=C(N(C1=CCCC1)N(c1ccccc1)c1ccccc1)C(F)(F)F`: the TGI with SK-OV-3 ovarian was > 100 µM; in the assay with UO-31 renal, 75.6 µM; in the assay on SF-268 CNS, 48.7 µM; in the assay with HCT-15 colon, 51.8 µM; in the assay on MDA-MB-231 breast it was 34.3 µM; in the assay with U251 CNS, 42.2 µM. The TGI in the assay with OVCAR-5 ovarian is > 100 µM; in the assay with M14 melanoma it was 74.5 µM; in the assay with RXF 393 renal it was 38.8 µM; in the assay with KM12 colon, 43.9 µM.

For `CC(=O)c1nc(C#N)c(N)o1`, the TGI with SK-OV-3 ovarian, in the assay with UO-31 renal, in the assay with SF-268 CNS, in the assay with HCT-15 colon, with MDA-MB-231 breast and in the assay on U251 CNS was > 100 µM each time. The TGI in the assay with OVCAR-5 ovarian, in the assay with M14 melanoma, in the assay with RXF 393 renal and in the assay with KM12 colon was > 100 µM in each case.

Consider `CN1C(=O)[C@](C)(Cc2ccc(F)cc2)N(C(=O)OC(C)(C)C)[C@@H]1C(C)(C)C`, for which the TGI in the assay on SK-OV-3 ovarian, in the assay with UO-31 renal, in the assay with SF-268 CNS, in the assay on HCT-15 colon, with MDA-MB-231 breast and with U251 CNS was > 100 µM each time. The TGI with OVCAR-5 ovarian was > 100 µM; in the assay with M14 melanoma it was > 100 µM; in the assay on RXF 393 renal it was 59.9 µM; in the assay on KM12 colon, > 100 µM.

`COc1cc(C)c(S(=O)(=O)N(CCCN)OCCCN)c(C)c1C`: the TGI is > 100 µM in the assay with SK-OV-3 ovarian; > 100 µM with UO-31 renal; > 100 µM with SF-268 CNS; > 100 µM with HCT-15 colon; 80.8 µM in the assay with MDA-MB-231 breast; > 100 µM with U251 CNS. In addition, the TGI with OVCAR-5 ovarian was > 100 µM; in the assay on M14 melanoma, 65.2 µM; in the assay on RXF 393 renal, 90 µM; with KM12 colon, > 100 µM.

Turning to `CC(=O)OCC12C(OC(C)=O)C[C@@H](C)C3(CC(c4ccoc4)OC3=O)C1CCC(OC(C)=O)C21CO1` (stereo not given in full), the TGI in the assay on SK-OV-3 ovarian, with UO-31 renal, in the assay with SF-268 CNS, with HCT-15 colon, in the assay with MDA-MB-231 breast and in the assay with U251 CNS was > 100 µM throughout. Also, the TGI in the assay with OVCAR-5 ovarian, with M14 melanoma, with RXF 393 renal and with KM12 colon was > 100 µM throughout.

On to `CCOC(=O)CCN1C(=O)c2c(NC(=O)C(=O)O)cccc2S1(=O)=O`, for which the TGI in the assay with SK-OV-3 ovarian, in the assay on UO-31 renal, with SF-268 CNS, in the assay on HCT-15 colon, in the assay with MDA-MB-231 breast and with U251 CNS was > 100 µM each time. Also, the TGI with OVCAR-5 ovarian, in the assay on M14 melanoma, with RXF 393 renal and in the assay with KM12 colon was > 100 µM in each case.

For `CCOC(=O)C1=C(C)N(c2ccc(Cl)cc2)C2(O)C=CC(=O)C3C(=O)N(c4ccccc4)C(=O)C132` (stereo not given), the TGI in the assay with SK-OV-3 ovarian came to 8.27 µM; with UO-31 renal it was 3.31 µM; in the assay on SF-268 CNS, 4.54 µM; in the assay with HCT-15 colon it was 4.37 µM; in the assay with MDA-MB-231 breast, 4.59 µM; in the assay on U251 CNS, 5.39 µM. For the same compound, the TGI with OVCAR-5 ovarian came out at 4.15 µM; in the assay on M14 melanoma it was 3.29 µM; with RXF 393 renal, 3.31 µM; with KM12 colon it was 3.52 µM.

Turning to `O=C1CCc2c(sc3ncnc(Nc4cccc(Br)c4)c23)C1`, the TGI is 20.1 µM in the assay with SK-OV-3 ovarian; 5.23 µM in the assay on UO-31 renal; 15.2 µM with SF-268 CNS; 12.4 µM in the assay with HCT-15 colon; 11.5 µM in the assay on MDA-MB-231 breast; 9.02 µM with U251 CNS. Further, the TGI with OVCAR-5 ovarian was 23.4 µM; with M14 melanoma, 13.9 µM; with RXF 393 renal, 7.51 µM; in the assay on KM12 colon, 12.3 µM.

As to `CCOC(=O)c1sc2[n+](c1C)C(=O)/C(=C/c1ccccc1Cl)S2`, the TGI was > 69.2 µM in the assay on SK-OV-3 ovarian; 25 µM with UO-31 renal; > 53.5 µM in the assay on SF-268 CNS; 12.9 µM with HCT-15 colon; > 27.8 µM in the assay with MDA-MB-231 breast; 24.4 µM in the assay with U251 CNS. Besides, the TGI with OVCAR-5 ovarian was > 62 µM; in the assay on M14 melanoma, > 43.1 µM; in the assay on RXF 393 renal it was > 68.1 µM; in the assay on KM12 colon it was 18.2 µM.

For the compound `CC(=O)N1C(=O)/C(=C\C(=O)c2ccc(Cl)cc2)c2ccccc21`, the TGI came out at 59.9 µM in the assay with SK-OV-3 ovarian; 29.6 µM in the assay with UO-31 renal; 40.5 µM with SF-268 CNS; 23.4 µM in the assay on HCT-15 colon; 30.3 µM with MDA-MB-231 breast; 37.2 µM with U251 CNS. Also, the TGI turned out to be 48.4 µM with OVCAR-5 ovarian, 38.8 µM in the assay on M14 melanoma, 32.6 µM in the assay on RXF 393 renal and 35.3 µM with KM12 colon.

Take `N#Cc1nc(-c2ccccn2)c(-c2ccccn2)nc1C#N`: the TGI was 7.26 µM in the assay on SK-OV-3 ovarian; 5.64 µM in the assay with UO-31 renal; 7.12 µM with SF-268 CNS; > 42 µM in the assay with HCT-15 colon; > 53 µM in the assay on MDA-MB-231 breast; > 37.3 µM in the assay with U251 CNS. The TGI in the assay on OVCAR-5 ovarian was determined as 10 µM; with M14 melanoma it was 8.46 µM; in the assay with RXF 393 renal, 15.9 µM; in the assay with KM12 colon, 11.6 µM.

Regarding `O=C1CSC2=NC3=C(COC/C3=C\c3ccc(F)cc3)C(c3ccc(F)cc3)N12` (stereo not given), the TGI in the assay on SK-OV-3 ovarian, in the assay on UO-31 renal, with SF-268 CNS, in the assay on HCT-15 colon, with MDA-MB-231 breast and in the assay with U251 CNS was > 100 µM throughout. Besides, the TGI in the assay with OVCAR-5 ovarian, in the assay on M14 melanoma, in the assay with RXF 393 renal and in the assay on KM12 colon was > 100 µM each time.
